Here are results for one compound from US20070031415A1, “Regulation of interaction between rapl and rap1” (priority 2002, published 2007).

The target of this assay is T1, binding between Rap1 and p30 (Homo sapiens, UniProt P62834+Q8WWW0).
T1 construct: made in house; 293T cells for Myc-p30 (crude lysate)
T1 sequence (P62834 1-184): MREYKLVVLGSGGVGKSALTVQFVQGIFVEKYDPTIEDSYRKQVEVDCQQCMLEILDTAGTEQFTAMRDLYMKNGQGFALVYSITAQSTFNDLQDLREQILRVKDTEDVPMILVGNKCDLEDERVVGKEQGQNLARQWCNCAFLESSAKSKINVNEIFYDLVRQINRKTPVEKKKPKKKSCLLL
T1 sequence (Q8WWW0 1-265 isoform Q8WWW0-2): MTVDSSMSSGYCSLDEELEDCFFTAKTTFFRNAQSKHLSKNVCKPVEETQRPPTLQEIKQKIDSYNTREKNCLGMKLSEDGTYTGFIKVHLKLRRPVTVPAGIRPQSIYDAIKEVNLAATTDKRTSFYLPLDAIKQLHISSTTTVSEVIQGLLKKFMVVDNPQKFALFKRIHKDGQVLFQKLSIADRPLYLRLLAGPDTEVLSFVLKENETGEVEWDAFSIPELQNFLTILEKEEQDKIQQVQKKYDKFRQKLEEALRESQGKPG
Kind of assay: Rap1-p30 binding inhibition assay (GST-Rap1 beads pull-down of Myc-p30 lysate, western blot). The note with it: 1 μM compound, GTPγS-activated Rap1, reaction 4° C. 30 sec; FIG. 7. The method, then:
For a plasmid for production of GST-Rap1 fusion protein, pGEX-3× (product of Amersham Pharmacia Biotech) was used. The Rap1 coding sequence represented by SEQ ID NO:1 was inserted between BamHI and EcoRI restriction enzyme sites of the vector. At this time, two nucleotide pair CC were added in front of the 5′ terminal ATG of the nucleotide sequence represented by SEQ ID NO:1 for frame adjustment. […] GGATCCCCATG . . . 3′. The obtained plasmid for production of GST-Rap1 fusion protein was transfected into E. coli. The E. coli with the inserted plasmid was cultured, and GST-Rap1 protein was produced within E. coli cells by inducing the protein production with 0.2 mM IPTG (isopropylthiogalactopyranoside) (30° C., 2 hours). The E. coli cells were recovered by centrifugation, solubilized in a lysis buffer (100 mM NaCl, 50 mM Tris-HCl (pH 7.5), 1% Triton X100, 2 mM MgCl2, 0.1 TIU/ml Aprotinin), and disrupted by sonication. The solution was centrifuged, and then glutathione Sepharose 4B beads (product of Amersham) was added to the obtained supernatant and reacted at 4° C. for one hour to prepare GST-Rap1 beads.
A plasmid of p30-Myc tag was introduced into 293T cells in 70% confluency by electroporation. […]
The bands visualized by exposing to the film for chemiluminescence were quantitated with use of image analyzing software (Win Roof, product of Mitani Corp.). […]
A general note: In western blotting, separated proteins are transferred to a membrane and probed.

Regarding `CCS(=O)(=O)Nc1ncc(C(F)(F)F)cc1NC(=O)C1CCCCC1.O.[Na]` [compound 1, N-(2-ethylsulfonylamino-5-trifluoromethyl-3-pyridyl)cyclohexanecarboxamide monosodium salt monohydrate], the “p30 band volume (brightness×area) of p30 bound to activated GST-Rap1, compared to group without addition” value is “significantly lower”.
